According to patent publication US20240018125A1, “CYCLIC ISOTHIOUREA DERIVATIVES AS CXCR4 MODULATORS” (ERMIUM THERAPEUTICS, priority 2020, published 2024):
Structures can show the parent of a compound that is named as a salt.

Assays:
[1] = system: peripheral blood mononuclear cells (PBMCs) from healthy donors; assay: IFN production by R848-activated PBMCs, quantified with twINNE luciferase reporter cell line; format: cell-based, human; details: Homo sapiens, PBMC; read-out: IC50 of anti-inflammatory activity (IFN production by activated PBMCs)
Outline: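 Healthy-donor PBMCs (4.10^6/mL, RPMI/10% FBS) were pre-treated with compound, then stimulated with R848 at 5 μg/mL for 24 h. Supernatants were put on twINNE cells, which carry luciferase under five ISREs, for 24 h, and Bright-Glo luminescence was read. IC50 values came from variable-slope dose-response fits.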

[2] = molecular target: T1, human CXCR4 (hCXCR4) receptor (Homo sapiens, UniProt P61073); assay: BRET assay of antagonist activity on the CXCR4-CXCL12 signaling pathway (Gαi2 recruitment) in HEK-293 T cells; format: cell-based; details: HEK-293 T cells with hCXCR4, Gαi2 and BRET biosensors; 10 min with compound, then EC80 CXCL12
T1 construct: expressed in transfected cells; host or cells: HEK-293 T cells, transient co-transfection with polyethylenimine
Description: Examples of the present invention were tested for their antagonist activity on human CXCR4 (hCXCR4) receptor transiently over-expressed in HEK-293 T cells. Compounds exert antagonist activity if they decrease the action of CXCL12 on the receptor.
The specific effector (luciferase tagged: BRET donor) recruited at the membrane will be in close proximity to a plasma membrane anchor (GFP tagged: BRET acceptor) to induce a BRET signal (Hamdan et a1, 2006, Chapter 5, Current Protocols in Neuroscience).
HEK-293 T cells are maintained in Dulbecco's Modified Eagle's Medium supplemented with 10% Foetal Calf Serum, 1% Penicillin/Streptomycin at 37° C./5% CO2. Cells are co-transfected using polyethylenimine (25 kDa linear) with several DNA plasmids encoding: hCXCR4; Gai2; an intracellular effector fused to luciferase (BRET donor); a plasma membrane effector fused to GFP (BRET acceptor). After transfection, cells are cultured for 48 h at 37° C./5% CO2. On the day of the assay, cells are detached using trypsin 0.05%, resuspended in assay buffer (1.8 mM CaCl2, 1 mM MgCl2, 2.7 mM KCl, 137 mM NaCl, 0.4 mM NaH2PO4, 5.5 mM D-Glucose, 11.9 mM NaHCO3, 25 mM Hepes) and seeded in 384 well plate at a density of 20,000 cells per well. Then, plates are equilibrated 3.5 h at 37° C. before adding compounds. Compounds and luciferase substrate are added to the cells using an automated device (Freedom Evo®, Tecan) and BRET readings are collected on EnVision (PerkinElmer) with specific filters (410 nm BW 80 nm, 515 nm BW 30 nm).
Cells are first incubated for 10 minutes with the compound alone. Then, cells are stimulated by an EC80 CXCL12 concentration for additional 10 minutes and luminescence is recorded. EC80 CXCL12 concentration is the concentration giving 80% of the maximal CXCL12 response. Antagonist activity is evaluated in comparison to basal signals evoked by EC80 CXCL12 alone.
For IC50 determination, a dose-response test is performed using 20 concentrations (ranging over 6 logs) of each compound. Dose-response curves are fitted using the sigmoidal dose-response (variable slope) analysis in GraphPad Prism software (GraphPad Software) and IC50 of antagonist activity is calculated. Dose-response experiments are performed in duplicate, in two independent experiments.
HEK-293 T cells were transfected to allow measuring the recruitment of Gai2 proteins involved in intracellular signaling by human CXCR4 receptor (hCXCR4) via the BRET technology. Cells were then incubated with various concentrations of examples of the invention before stimulation with an EC80 concentration of CXCL12.

[3] = molecular target: T2, Recombinant CXCR4 receptor (Homo sapiens, UniProt P61073); assay: G.Validation fluorescence assay of CXCR4 receptor conformational changes in lipidic micelles SB2L4 and SB3L1; format: biochemical; details: ligand 150 μM over basal state, 5 μM labelled CXCR4, 40 min
T2 construct: host or cells: HEK-293 T cells
Source text: G.Validation® assay is […] biotech proprietary fluorescence based assay that assesses conformational changes of a receptor upon activation/inactivation. Recombinant CXCR4 receptor is produced and purified from HEK-293 T cells using […] proprietary mixes. Receptor is then reconstituted in detergent buffers containing lipids mimicking the lipidic composition of dendritic cells (DC) and macrophages (SB2L4 and SB3L1). Thereafter, the receptor is labelled with a non-modifying probe allowing the detection of the activation state and conformational change of the receptor upon addition of a ligand. Indeed, the probe emission spectra maximum wavelength (Amax) shifts according to activation/inactivation of the receptor. Thus, kinetic of activation/inactivation of the receptor can be followed by monitoring Amax shift after addition of a ligand over time. Emission spectra were registered for 40 minutes after addition of each ligand. […] Activation/inactivation kinetics were also followed using an exemplary compound of formula (I), i.e.

[4] = system: 129S8 mice infected with influenza A virus H3 N2 (X31); assay: In vivo immunomodulating effect (type 1 IFNs in BALF) in acute influenza inflammation model; parameters: species or system mouse; details: mouse, in vivo
[5] = system: Female Balb/c mice, pristane-induced lupus; assay: In vivo pristane-induced lupus mouse model, anti-dsDNA antibody titers in serum by ELISA; details: 15 mg/kg p.o. once daily, as of week 4
Description: Female Balb/c mice (6 to 8 weeks, ENVIGO, Indianapolis, USA) received a single i.p. injection with 0.5 mL of pristane (Sigma-Aldrich, St Louis, USA) to induce a lupus-like disease. That same day, once daily treatment was started (10 mL/kg), either with vehicle control (PBS) i.p., with prednisolone (Sigma-Aldrich, St Louis, USA) in PBS p.o. at a dose of 15 mg/kg (positive control), or with an exemplary compound of formula (I), i.e. Example 60, at a dose of either 3 mg/kg, 10 mg/kg or 30 mg/kg in PBS i.p. After 4, 6 and 8 weeks of dosing, sample bleeds for each mouse were collected via the orbital sinus, and immediately cold processed to sera and stored (50 μl) at −80° C. until analysis. In serum, anti-dsDNA antibody titers are determined using ELISA. Optical density was measured at 450 nm (OD450) using a microplate reader. Data are reported as anti-dsDNA Ab titers (OD), mean±S.E.M. as well as the statistical significance versus pristane-induced vehicle treated group using t-tests.

T2 sequence (P61073 whole entry): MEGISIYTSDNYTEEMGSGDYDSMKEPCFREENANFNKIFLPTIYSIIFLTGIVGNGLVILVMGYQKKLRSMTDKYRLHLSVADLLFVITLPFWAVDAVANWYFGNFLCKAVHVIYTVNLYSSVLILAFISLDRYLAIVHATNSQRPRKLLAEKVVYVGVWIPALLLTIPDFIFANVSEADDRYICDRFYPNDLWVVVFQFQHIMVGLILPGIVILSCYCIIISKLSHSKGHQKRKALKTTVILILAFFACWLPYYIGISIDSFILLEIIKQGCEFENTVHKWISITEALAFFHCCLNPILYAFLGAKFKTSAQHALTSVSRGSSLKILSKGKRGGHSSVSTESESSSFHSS
T1 sequence (P61073 whole entry): as above

## C1=C(CSC2=NCc3ccccc3N2)N2CC(CCc3ccccc3)N=C2S1 (stereo not shown) (as salt: hydrochloride) [Example 126, 3-(((1,4-dihydroquinazolin-2-yl)thio)methyl)-6-phenethyl-5,6-dihydroimidazo[2,1-b]thiazole dihydrochloride]
other
  melting point: 136 to 142 °C

## c1ccc(C2CCCN2CCSC2=NCc3ccccc3N2)cc1 (stereo not shown) (as salt: hydrochloride) [Example 128, 2-((2-(2-phenylpyrrolidin-1-yl)ethyl)thio)-1,4-dihydroquinazoline dihydrochloride]
other
  melting point: 94 to 108 °C

## c1ccc2c(c1)CN=C(SCCN1[C@@H]3CCC[C@H]1CC3)N2 (as salt: hydrochloride) [Example 133, 2-((2-((1R,5S)-8-azabicyclo[3.2.1]octan-8-yl)ethyl)thio)-3,4-dihydroquinazoline dihydrochloride]
other
  melting point: 52 to 70 °C

## Ic1cc2c(c(I)c1I)NC(SCCN1CCCC1)=NC2 (as salt: hydrochloride) [Example 134, 6,7,8-triiodo-2-((2-(pyrrolidin-1-yl)ethyl)thio)-1,4-dihydroquinazoline dihydrochloride]
other
  melting point: 190 to 195 °C

## c1ccc2c(c1)CN=C(SCCCCN1CCCC1)N2 (as salt: hydrochloride) [Example 137, 2-((4-(pyrrolidin-1-yl)butyl)thio)-1,4-dihydroquinazoline dihydrochloride]
other
  melting point: 78 to 85 °C

## CC1CCN(CCSC2=NCc3ccccc3N2)C1 (stereo not shown) (as salt: hydrochloride) [Example 138, 2-((2-(3-methylpyrrolidin-1-yl)ethyl)thio)-1,4-dihydroquinazoline dihydrochloride]
other
  melting point: 178 to 182 °C

## Fc1ccc(CC2CN3C(CSC4=NCc5ccccc5N4)=CSC3=N2)cc1 (stereo not shown) (as salt: hydrochloride) [Example 196, 3-(((1,4-dihydroquinazolin-2-yl)thio)methyl)-6-(4-fluorobenzyl)-5,6-dihydroimidazo[2,1-b]thiazole dihydrochloride]
other
  melting point: 155 to 160 °C

## C1=C(CSC2=NCc3ccccc3N2)N2C(=N[C@H]3CCCC[C@@H]32)S1 (relative stereo) (as salt: hydrochloride) [Example 13, trans-3-(((3,4-dihydroquinazolin-2-yl)thio)methyl)-4a,5,6,7,8,8a-hexahydrobenzo[4,5]imidazo[2,1-b]thiazole dihydrochloride]
other
  melting point: 240 to 244 °C

## C1=C(CSC2=NCc3ccccc3N2)N2C(=N[C@H](c3ccccc3)[C@H]2c2ccccc2)S1 (relative stereo) (as salt: hydrochloride) [Example 16, trans-3-(((3,4-dihydroquinazolin-2-yl)thio)methyl)-5,6-diphenyl-5,6-dihydroimidazo[2,1-b]thiazole dihydrochloride]
other
  melting point: 175 to 185 °C

## OC1(CSC2=NCc3ccccc3N2)CSC2=N[C@H](c3ccccc3)[C@@H](c3ccccc3)N21 (relative stereo) (as salt: hydrochloride) [Example 17, trans-3-(((3,4-dihydroquinazolin-2-yl)thio)methyl)-5,6-diphenyl-2,3,5,6-tetrahydroimidazo[2,1-b]thiazol-3-ol dihydrochloride]
other
  melting point: 195 to 200 °C

## Clc1ccc2c(c1)CN1C(CSC3=NCc4ccccc4N3)=CSC1=N2 [Example 19, 7-chloro-3-(((1,4-dihydroquinazolin-2-yl)thio)methyl)-5H-thiazolo[2,3-b]quinazoline dihydrochloride]
[1]
  IC50: ≤ 10 µM
[2]
  IC50: ≥ 15 µM

## C1=C(CSC2=NCc3cccnc3N2)N2Cc3ccccc3CN=C2S1.Cl.Cl.Cl [Example 31, 3-(((1,4-dihydropyrido[2,3-d]pyrimidin-2-yl)thio)methyl)-5,10-dihydrobenzo[e]thiazolo[3,2-a][1,3]diazepine trihydrochloride]
[1]
  IC50: ≤ 10 µM
other
  melting point: 194 to 203 °C

## Cl.c1ccc(CC2CN=C(SCc3cn4cccnc4n3)N2)cc1 (stereo not shown) [Example 51, 2-(((5-benzyl-4,5-dihydro-1H-imidazol-2-yl)thio)methyl)imidazo[1,2-a]pyrimidine hydrochloride]
[1]
  IC50: > 32 µM
other
  melting point: 100 to 115 °C

## Cl.c1ccc2c(c1)CN=C(SCc1csc3nc4ccccc4n13)N2 [Example 96]
other
  melting point: > 250 °C

## COc1cc2nc3scc(CSC4=NCc5ccccc5N4)n3c2cc1OC.Cl [Example 97, 3-(((3,4-dihydroquinazolin-2-yl)thio)methyl)-6,7-dimethoxybenzo[4,5]imidazo[2,1-b]thiazole hydrochloride]
[1]
  IC50: > 32 µM
other
  melting point: 238 to 240 °C

## Cl.c1ccc2c(c1)CN=C(SCCN1CCc3ccccc31)N2 [Example 115, 2-((2-(indolin-1-yl)ethyl)thio)-1,4-dihydroquinazoline hydrochloride]
[1]
  IC50: 10 to 32 µM
other
  melting point: 82 to 88 °C

## Cl.c1ccc2c(c1)CN=C(SCCCN1CCCC1)N2 [Example 136, 2-((3-(pyrrolidin-1-yl)propyl)thio)-1,4-dihydroquinazoline dihydrochloride]
[1]
  IC50: ≤ 10 µM
other
  melting point: 178 to 182 °C

## Cl.c1ccc2c(c1)CN=C(SCCC1CCCC1)N2 [Example 197, 2-((2-cyclopentylethyl)thio)-1,4-dihydroquinazoline hydrochloride]
[1]
  IC50: 10 to 32 µM
other
  melting point: 42 to 50 °C

## Cc1ccc(OCC(O)C(C)NC(C)C)c2c1CCC2 (stereo not shown) [ICI 118 551]
[3]
  CXCR4 structural activation/inactivation, Amax shift in fluorescence: did not show any significant effect

## NC[C@H](O)c1ccc(O)c(O)c1 [Norepinephrine]
[3]
  CXCR4 structural activation/inactivation, Amax shift in fluorescence: did not show any significant effect

## CC(C)Cc1ccc(C(C)C(=O)O)cc1 (stereo not shown) [ibuprofen, reference compound]
[4]
  concentration of IFNα in BALF vs vehicle-treated infected mice: significantly lower
  concentration of IFNβ in BALF vs vehicle-treated infected mice: significantly lower
  concentration of IFNλ2/3 in BALF vs vehicle-treated infected mice: significantly lower

## C[C@]12C=CC(=O)C=C1CC[C@@H]1[C@@H]2[C@@H](O)C[C@@]2(C)[C@H]1CC[C@]2(O)C(=O)CO [prednisolone, reference compound]
[5]
  anti-dsDNA Ab titers in serum vs vehicle-treated pristane-induced mice: significantly reduced
